Measurements taken from ChEMBL document CHEMBL4507281, “Data for DCP probe BI-4394” (2021).

Key:
[1] = system: Tyrosine-protein kinase ABL1 (Homo sapiens), P00519 [Q252H]; settings: Compound concentration 100.0 nM
[2] = molecular target: Tyrosine-protein kinase ABL1 (Homo sapiens) (UniProt P00519); settings: Compound concentration 100.0 nM
[3] = molecular target: Activin receptor type-2A (Homo sapiens) (UniProt P27037); settings: Compound concentration 100.0 nM
[4] = molecular target: Serine/threonine-protein kinase B-raf (Homo sapiens) (UniProt P15056); settings: Compound concentration 100.0 nM
[5] = molecular target: Calcium/calmodulin-dependent protein kinase type II subunit gamma (Homo sapiens) (UniProt Q13555); settings: Compound concentration 100.0 nM
[6] = molecular target: Calcium/calmodulin-dependent protein kinase kinase 1 (Homo sapiens) (UniProt Q8N5S9); settings: Compound concentration 100.0 nM
[7] = molecular target: Cyclin-dependent kinase-like 1 (Homo sapiens) (UniProt Q00532); settings: Compound concentration 100.0 nM
[8] = molecular target: Cyclin-dependent kinase-like 3 (Homo sapiens) (UniProt Q8IVW4); settings: Compound concentration 100.0 nM
[9] = molecular target: Citron Rho-interacting kinase (Homo sapiens) (UniProt O14578); settings: Compound concentration 100.0 nM
[10] = molecular target: Serine/threonine-protein kinase DCLK2 (Homo sapiens) (UniProt Q8N568); settings: Compound concentration 100.0 nM
[11] = system: Epidermal growth factor receptor (Homo sapiens), P00533 [L861Q]; settings: Compound concentration 100.0 nM
[12] = molecular target: Vascular endothelial growth factor receptor 1 (Homo sapiens) (UniProt P17948); settings: Compound concentration 100.0 nM
[13] = system: Receptor-type tyrosine-protein kinase FLT3 (Homo sapiens), P36888 [N841I]; settings: Compound concentration 100.0 nM
[14] = molecular target: Insulin receptor-related protein (Homo sapiens) (UniProt P14616); settings: Compound concentration 100.0 nM
[15] = molecular target: Tyrosine-protein kinase JAK2 (Homo sapiens) (UniProt O60674); settings: Compound concentration 100.0 nM
[16] = system: Mast/stem cell growth factor receptor Kit (Homo sapiens), P10721 [D816V]; settings: Compound concentration 100.0 nM
[17] = molecular target: Tyrosine-protein kinase Lck (Homo sapiens) (UniProt P06239); settings: Compound concentration 100.0 nM
[18] = molecular target: LIM domain kinase 2 (Homo sapiens) (UniProt P53671); settings: Compound concentration 100.0 nM
[19] = molecular target: Mitogen-activated protein kinase kinase kinase 15 (Homo sapiens) (UniProt Q6ZN16); settings: Compound concentration 100.0 nM
[20] = molecular target: Dual specificity mitogen-activated protein kinase kinase 3 (Homo sapiens) (UniProt P46734); settings: Compound concentration 100.0 nM
[21] = molecular target: Cyclin-dependent kinase 16 (Homo sapiens) (UniProt Q00536); settings: Compound concentration 100.0 nM
[22] = molecular target: Cyclin-dependent kinase 18 (Homo sapiens) (UniProt Q07002); settings: Compound concentration 100.0 nM
[23] = molecular target: 3-phosphoinositide-dependent protein kinase 1 (Homo sapiens) (UniProt O15530); settings: Compound concentration 100.0 nM
[24] = molecular target: Calcium-dependent protein kinase 1 (Plasmodium falciparum) (UniProt P62344); settings: Compound concentration 100.0 nM
[25] = molecular target: Cyclin-dependent kinase 14 (Homo sapiens) (UniProt O94921); settings: Compound concentration 100.0 nM
[26] = system: Phosphatidylinositol 4,5-bisphosphate 3-kinase catalytic subunit alpha isoform (Homo sapiens), P42336 [E542K]; settings: Compound concentration 100.0 nM
[27] = system: Phosphatidylinositol 4,5-bisphosphate 3-kinase catalytic subunit alpha isoform (Homo sapiens), P42336 [H1047L]; settings: Compound concentration 100.0 nM
[28] = system: Phosphatidylinositol 4,5-bisphosphate 3-kinase catalytic subunit alpha isoform (Homo sapiens), P42336 [H1047Y]; settings: Compound concentration 100.0 nM
[29] = molecular target: Phosphatidylinositol 4,5-bisphosphate 3-kinase catalytic subunit delta isoform (Homo sapiens) (UniProt O00329); settings: Compound concentration 100.0 nM
[30] = molecular target: cAMP-dependent protein kinase catalytic subunit beta (Homo sapiens) (UniProt P22694); settings: Compound concentration 100.0 nM
[31] = molecular target: Serine/threonine-protein kinase PLK4 (Homo sapiens) (UniProt O00444); settings: Compound concentration 100.0 nM
[32] = molecular target: Protein kinase C iota type (Homo sapiens) (UniProt P41743); settings: Compound concentration 100.0 nM
[33] = molecular target: Rho-associated protein kinase 1 (Homo sapiens) (UniProt Q13464); settings: Compound concentration 100.0 nM
[34] = molecular target: Serine/threonine-protein kinase Sgk2 (Homo sapiens) (UniProt Q9HBY8); settings: Compound concentration 100.0 nM
[35] = molecular target: SRSF protein kinase 3 (Homo sapiens) (UniProt Q9UPE1); settings: Compound concentration 100.0 nM
[36] = molecular target: Mitogen-activated protein kinase kinase kinase 7 (Homo sapiens) (UniProt O43318); settings: Compound concentration 100.0 nM
[37] = molecular target: Phosphatidylinositol 3-kinase catalytic subunit type 3 (Homo sapiens) (UniProt Q8NEB9); settings: Compound concentration 100.0 nM
[38] = molecular target: Serine/threonine-protein kinase WNK3 (Homo sapiens) (UniProt Q9BYP7); settings: Compound concentration 100.0 nM
[39] = molecular target: 5-hydroxytryptamine receptor 3A (Homo sapiens) (UniProt P46098); settings: Compound concentration 10.0 uM
[40] = molecular target: 5-hydroxytryptamine receptor 7 (Homo sapiens) (UniProt P34969); settings: Compound concentration 10.0 uM
[41] = molecular target: GABA-A receptor; anion channel (Rattus norvegicus) (UniProt O09028+P15431+P18506+P18508+P19969+P20236+P23574+P23576+P28471+P28473+P30191+P62813+P63079+P63138+Q91ZM7+Q9ES14); settings: Compound concentration 10.0 uM
[42] = molecular target: Beta-3 adrenergic receptor (Homo sapiens) (UniProt P13945); settings: Compound concentration 10.0 uM
[43] = species on record: Rattus norvegicus; settings: Compound concentration 10.0 uM

Sequence of Phosphatidylinositol 4,5-bisphosphate 3-kinase catalytic subunit alpha isoform (Homo sapiens), P42336 [E542K] (P42336 whole entry E542K, canonical isoform): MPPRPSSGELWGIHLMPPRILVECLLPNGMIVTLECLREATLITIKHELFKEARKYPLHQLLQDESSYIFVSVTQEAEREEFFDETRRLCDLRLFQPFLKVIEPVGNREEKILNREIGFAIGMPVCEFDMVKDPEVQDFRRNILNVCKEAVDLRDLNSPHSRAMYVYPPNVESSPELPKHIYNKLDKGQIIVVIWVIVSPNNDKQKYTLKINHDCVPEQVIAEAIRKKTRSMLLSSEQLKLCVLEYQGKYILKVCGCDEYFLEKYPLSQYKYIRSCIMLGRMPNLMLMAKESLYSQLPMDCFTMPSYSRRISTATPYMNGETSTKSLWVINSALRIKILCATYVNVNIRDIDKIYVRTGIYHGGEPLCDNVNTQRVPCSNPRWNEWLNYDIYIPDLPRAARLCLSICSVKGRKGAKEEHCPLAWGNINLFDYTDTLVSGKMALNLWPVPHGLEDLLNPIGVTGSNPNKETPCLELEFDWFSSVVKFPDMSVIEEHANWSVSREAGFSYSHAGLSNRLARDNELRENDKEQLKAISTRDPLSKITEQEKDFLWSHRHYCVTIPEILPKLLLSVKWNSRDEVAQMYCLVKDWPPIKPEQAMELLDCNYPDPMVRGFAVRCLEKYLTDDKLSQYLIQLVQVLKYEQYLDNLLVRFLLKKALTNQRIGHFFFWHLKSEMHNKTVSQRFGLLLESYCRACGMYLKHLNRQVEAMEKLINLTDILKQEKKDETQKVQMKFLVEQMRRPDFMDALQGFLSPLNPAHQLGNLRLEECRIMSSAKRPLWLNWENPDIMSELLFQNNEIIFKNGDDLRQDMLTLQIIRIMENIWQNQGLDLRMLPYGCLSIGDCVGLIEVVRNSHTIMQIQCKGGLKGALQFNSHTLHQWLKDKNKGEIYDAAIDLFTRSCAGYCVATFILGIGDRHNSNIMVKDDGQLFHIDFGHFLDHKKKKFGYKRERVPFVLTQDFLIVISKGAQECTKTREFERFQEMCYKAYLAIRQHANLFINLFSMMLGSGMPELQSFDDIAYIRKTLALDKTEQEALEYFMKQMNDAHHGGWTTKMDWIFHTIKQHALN
Sequence of Citron Rho-interacting kinase (Homo sapiens) (O14578 whole entry): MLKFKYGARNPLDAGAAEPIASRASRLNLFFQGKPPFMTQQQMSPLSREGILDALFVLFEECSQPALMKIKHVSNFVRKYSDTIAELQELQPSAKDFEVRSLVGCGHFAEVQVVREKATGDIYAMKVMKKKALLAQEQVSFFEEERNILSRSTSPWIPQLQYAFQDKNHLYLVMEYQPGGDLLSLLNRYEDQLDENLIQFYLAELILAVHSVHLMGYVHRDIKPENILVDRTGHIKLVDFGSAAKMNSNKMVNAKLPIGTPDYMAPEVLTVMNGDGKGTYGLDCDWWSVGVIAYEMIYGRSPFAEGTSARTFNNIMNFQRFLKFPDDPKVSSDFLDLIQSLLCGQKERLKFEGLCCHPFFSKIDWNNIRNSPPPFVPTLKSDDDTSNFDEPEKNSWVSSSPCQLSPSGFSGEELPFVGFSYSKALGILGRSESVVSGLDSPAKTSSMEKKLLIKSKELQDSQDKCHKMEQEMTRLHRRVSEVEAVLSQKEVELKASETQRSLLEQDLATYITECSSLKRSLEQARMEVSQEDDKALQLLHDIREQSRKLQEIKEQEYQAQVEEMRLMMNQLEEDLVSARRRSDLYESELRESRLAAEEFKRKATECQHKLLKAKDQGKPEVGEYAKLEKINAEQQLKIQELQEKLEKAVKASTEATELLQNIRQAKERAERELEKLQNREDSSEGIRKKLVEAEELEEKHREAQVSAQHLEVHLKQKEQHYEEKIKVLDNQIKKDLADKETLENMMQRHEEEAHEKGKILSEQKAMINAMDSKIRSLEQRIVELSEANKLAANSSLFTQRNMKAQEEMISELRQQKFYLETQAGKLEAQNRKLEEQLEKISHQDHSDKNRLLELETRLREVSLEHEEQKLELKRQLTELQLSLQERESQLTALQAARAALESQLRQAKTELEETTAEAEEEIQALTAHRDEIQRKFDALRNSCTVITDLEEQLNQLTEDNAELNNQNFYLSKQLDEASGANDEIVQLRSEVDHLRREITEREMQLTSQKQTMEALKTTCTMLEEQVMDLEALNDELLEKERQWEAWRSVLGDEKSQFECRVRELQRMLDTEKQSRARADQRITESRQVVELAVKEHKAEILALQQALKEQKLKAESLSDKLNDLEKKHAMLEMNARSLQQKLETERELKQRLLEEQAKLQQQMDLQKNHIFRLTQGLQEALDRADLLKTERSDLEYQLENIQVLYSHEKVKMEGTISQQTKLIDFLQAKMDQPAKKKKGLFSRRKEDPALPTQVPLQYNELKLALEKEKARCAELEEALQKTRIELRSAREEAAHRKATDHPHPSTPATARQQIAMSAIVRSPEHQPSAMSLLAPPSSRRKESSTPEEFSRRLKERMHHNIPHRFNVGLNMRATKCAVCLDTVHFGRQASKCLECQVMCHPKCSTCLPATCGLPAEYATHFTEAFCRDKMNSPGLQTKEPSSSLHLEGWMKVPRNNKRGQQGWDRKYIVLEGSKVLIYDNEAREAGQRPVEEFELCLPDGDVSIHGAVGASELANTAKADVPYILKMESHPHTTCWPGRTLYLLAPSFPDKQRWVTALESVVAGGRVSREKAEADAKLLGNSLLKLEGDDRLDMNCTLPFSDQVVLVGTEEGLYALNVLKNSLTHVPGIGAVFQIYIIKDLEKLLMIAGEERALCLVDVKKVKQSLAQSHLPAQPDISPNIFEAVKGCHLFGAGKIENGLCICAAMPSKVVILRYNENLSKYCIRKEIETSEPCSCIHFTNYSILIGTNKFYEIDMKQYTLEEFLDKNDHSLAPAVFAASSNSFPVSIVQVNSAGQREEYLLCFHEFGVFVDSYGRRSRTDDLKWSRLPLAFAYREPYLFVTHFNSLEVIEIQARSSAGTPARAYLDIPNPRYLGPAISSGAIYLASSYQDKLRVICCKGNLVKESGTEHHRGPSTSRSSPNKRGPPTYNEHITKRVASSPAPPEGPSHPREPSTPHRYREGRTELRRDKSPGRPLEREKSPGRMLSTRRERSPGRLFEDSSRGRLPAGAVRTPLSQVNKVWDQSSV
Sequence of Cyclin-dependent kinase 16 (Homo sapiens) (Q00536 whole entry): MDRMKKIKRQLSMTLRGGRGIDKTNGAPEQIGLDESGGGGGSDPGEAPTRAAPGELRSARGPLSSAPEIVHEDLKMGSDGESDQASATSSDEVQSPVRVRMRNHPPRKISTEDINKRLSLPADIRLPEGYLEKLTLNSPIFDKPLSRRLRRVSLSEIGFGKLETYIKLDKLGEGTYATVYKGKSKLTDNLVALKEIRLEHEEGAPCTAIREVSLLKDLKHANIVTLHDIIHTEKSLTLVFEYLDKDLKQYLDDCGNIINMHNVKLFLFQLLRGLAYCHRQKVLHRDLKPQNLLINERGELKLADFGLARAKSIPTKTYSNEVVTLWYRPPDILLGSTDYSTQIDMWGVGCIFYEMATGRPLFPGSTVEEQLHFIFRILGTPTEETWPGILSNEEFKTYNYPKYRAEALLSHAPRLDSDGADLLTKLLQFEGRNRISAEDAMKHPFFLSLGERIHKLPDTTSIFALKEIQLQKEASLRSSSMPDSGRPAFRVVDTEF
Sequence of Phosphatidylinositol 3-kinase catalytic subunit type 3 (Homo sapiens) (Q8NEB9 whole entry): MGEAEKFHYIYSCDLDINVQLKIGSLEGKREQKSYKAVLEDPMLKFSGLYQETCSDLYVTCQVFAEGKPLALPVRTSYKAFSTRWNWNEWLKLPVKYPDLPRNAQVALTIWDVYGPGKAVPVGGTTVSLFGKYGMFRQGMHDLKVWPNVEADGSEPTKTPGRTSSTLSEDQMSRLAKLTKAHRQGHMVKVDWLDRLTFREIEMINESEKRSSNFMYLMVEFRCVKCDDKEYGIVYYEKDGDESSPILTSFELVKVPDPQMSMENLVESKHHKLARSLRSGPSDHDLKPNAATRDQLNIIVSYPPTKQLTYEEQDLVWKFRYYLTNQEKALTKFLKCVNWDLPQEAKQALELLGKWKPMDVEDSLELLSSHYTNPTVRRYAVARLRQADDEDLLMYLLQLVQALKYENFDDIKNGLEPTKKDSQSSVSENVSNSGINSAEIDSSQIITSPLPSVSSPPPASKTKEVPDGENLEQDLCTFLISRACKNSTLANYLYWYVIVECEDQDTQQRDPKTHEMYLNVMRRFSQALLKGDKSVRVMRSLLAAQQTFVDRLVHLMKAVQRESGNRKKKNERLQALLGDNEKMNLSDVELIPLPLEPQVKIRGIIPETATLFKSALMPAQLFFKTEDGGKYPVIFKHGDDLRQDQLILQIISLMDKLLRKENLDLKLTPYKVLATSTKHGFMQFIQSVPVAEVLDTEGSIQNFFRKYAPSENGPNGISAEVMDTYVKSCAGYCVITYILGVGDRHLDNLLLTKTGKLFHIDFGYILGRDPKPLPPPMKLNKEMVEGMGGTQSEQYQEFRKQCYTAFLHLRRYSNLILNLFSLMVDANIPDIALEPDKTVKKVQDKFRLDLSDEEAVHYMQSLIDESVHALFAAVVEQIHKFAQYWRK
Sequence of 5-hydroxytryptamine receptor 7 (Homo sapiens) (P34969 whole entry): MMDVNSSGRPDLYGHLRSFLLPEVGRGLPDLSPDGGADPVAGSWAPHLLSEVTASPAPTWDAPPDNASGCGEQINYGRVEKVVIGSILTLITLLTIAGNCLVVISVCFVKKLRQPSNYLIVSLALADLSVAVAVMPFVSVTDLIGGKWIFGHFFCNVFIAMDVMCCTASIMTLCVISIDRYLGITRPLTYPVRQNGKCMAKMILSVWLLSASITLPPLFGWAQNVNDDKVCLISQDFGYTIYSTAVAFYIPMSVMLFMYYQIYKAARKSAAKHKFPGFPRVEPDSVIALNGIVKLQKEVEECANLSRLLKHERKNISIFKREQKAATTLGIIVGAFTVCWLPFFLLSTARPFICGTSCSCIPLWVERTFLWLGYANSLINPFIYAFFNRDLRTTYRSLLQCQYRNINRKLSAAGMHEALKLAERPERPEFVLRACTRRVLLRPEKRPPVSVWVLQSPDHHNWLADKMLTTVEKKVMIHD

Work on `CCOC(=O)c1cc2cc(-c3cc(C(=O)NCc4ccc(C(=O)O)cc4)nn3C)ccc2[nH]1` [BI 4394] yielded a residual activity [1] of 81%, a residual activity [2] of 81% and a residual activity [3] of 59%. It also gave a residual activity [4] of 91%, a residual activity [5] of 100% and a residual activity [6] of 100%. For the same molecule, the residual activity [7] was 77%, the residual activity [8] was 0% and the residual activity [9] was 100%. The residual activity [10] was 100%, the residual activity [11] was 100% and the residual activity [12] was 97%. For the same molecule, the residual activity [13] was 81%, the residual activity [14] was 77% and the residual activity [15] was 95%. The residual activity [16] was 100%, the residual activity [17] was 94% and the residual activity [18] was 96%. For the same molecule, the residual activity [19] was 100%, the residual activity [20] was 100% and the residual activity [21] was 75%. The residual activity [22] was 100%, the residual activity [23] was 92% and the residual activity [24] was 100%. For the same molecule, the residual activity [25] was 100%, the residual activity [26] was 96% and the residual activity [27] was 100%. For the same molecule, the residual activity [28] was 77%, the residual activity [29] was 65% and the residual activity [30] was 86%. It also gave a residual activity [31] of 82%, a residual activity [32] of 87% and a residual activity [33] of 78%. For the same molecule, the residual activity [34] was 100%, the residual activity [35] was 100% and the residual activity [36] was 80%. The residual activity [37] was 80%, the residual activity [38] was 96% and the inhibition [39] was 34.8%. For the same molecule, the inhibition [40] was 5.88%, the inhibition [41] was 15.3% and the inhibition [42] was -6.63%. It also gave an inhibition [43] of -1.91%.
For `Cn1nc(C(=O)NCc2ccc(C(=O)O)cc2)cc1-c1ccc2[nH]ccc2c1` [BI 4395], the residual activity [1] was 77%, the residual activity [2] was 65% and the residual activity [3] was 98%. It also gave a residual activity [4] of 74%, a residual activity [5] of 83% and a residual activity [6] of 85%. The residual activity [7] was 70%, the residual activity [8] was 100% and the residual activity [9] was 59%. The residual activity [10] was 92%, the residual activity [11] was 69% and the residual activity [12] was 89%. It also gave a residual activity [13] of 100%, a residual activity [14] of 98% and a residual activity [15] of 90%. The residual activity [16] was 91%, the residual activity [17] was 75% and the residual activity [18] was 100%. It also gave a residual activity [19] of 91%, a residual activity [20] of 93% and a residual activity [21] of 93%. For the same molecule, the residual activity [22] was 97%, the residual activity [23] was 100% and the residual activity [24] was 73%. For the same molecule, the residual activity [25] was 100%, the residual activity [26] was 88% and the residual activity [27] was 100%. For the same molecule, the residual activity [28] was 100%, the residual activity [29] was 97% and the residual activity [30] was 98%. The residual activity [31] was 61%, the residual activity [32] was 80% and the residual activity [33] was 93%. For the same molecule, the residual activity [34] was 54%, the residual activity [35] was 100% and the residual activity [36] was 95%. It also gave a residual activity [37] of 93%, a residual activity [38] of 67% and an inhibition [39] of 23.5%. It also gave an inhibition [40] of -4.31%, an inhibition [41] of 26.6% and an inhibition [42] of 2.13%. The inhibition [43] was 6.39%.
